Read-outs that look alike come from different tables or passages of the source.
What was measured:
P. falciparum PH3 = experiment: In vitro blood stage antimalarial efficacy, [3H]hypoxanthine uptake, strain PH3; type: cell-based; conditions: Plasmodium falciparum
Description: (§1) In Vitro Blood Stage Antimalarial Efficacy Evaluation. New compounds were tested against a panel of strains of P. falciparum.
(§2) Test compounds were initially dissolved in DMSO and diluted 400 fold in RPMI 1640 culture medium supplemented with 25 mM Hepes, 32 mM NaHCO3 and 10% Albumax I (Gibco, NY). These solutions were subsequently serially diluted two-fold with a Beckman Biomek® 1000 Robot (Fullerton, Calif.) over 11 different concentrations. The parasites were exposed to serial dilutions of each compound for 48 hrs and incubated at 37° C. with 5% O2, 5% CO2 and 90% N2 prior to the addition of [^3H]hypoxanthine. After a further incubation of 18 hrs, parasite DNA was harvested from each microtiter well using Packard Filtermate™ 196 Harvester (Meriden, Conn.) onto glass filters. Uptake of [^3H]hypoxanthine was measured with a Packard TopCount Liquid Scintillation Counter (Packard Instrument Co.).

P. falciparum 3D7 = experiment: In vitro blood stage antimalarial efficacy, [3H]hypoxanthine uptake, strain 3D7; type: cell-based; conditions: Plasmodium falciparum
Description: as §1, §2

P. falciparum DD2 = experiment: In vitro blood stage antimalarial efficacy, [3H]hypoxanthine uptake, strain DD2; type: cell-based; conditions: Plasmodium falciparum
Description: as §1, §2

P. falciparum TM6 = experiment: In vitro blood stage antimalarial efficacy, [3H]hypoxanthine uptake, strain TM6; type: cell-based; conditions: Plasmodium falciparum
Description: as §1, §2

P. falciparum K1 = experiment: In vitro blood stage antimalarial efficacy, [3H]hypoxanthine uptake, strain K1; type: cell-based; conditions: Plasmodium falciparum
Description: as §1, §2

P. falciparum TM4 = experiment: In vitro blood stage antimalarial efficacy, [3H]hypoxanthine uptake, strain TM4; type: cell-based; conditions: Plasmodium falciparum
Description: as §1, §2

P. falciparum V1S = experiment: microbe, parasite or virus in culture; type: cell-based; conditions: Plasmodium falciparum
Description: as §1, §2

rodent P. berghei = conditions: for MCureD (minimum curative dose): rodent P. berghei
Description: Antimalarial potency was measured by determination of the MCD (minimum clearance dose), a commonly used efficacy measurement. The primary therapeutic indices, which were obtained by using the MCDs as the effective parameters, were calculated. A secondary therapeutic indices measure of antimalarial potency was determined by use of the dose for the MCureD (minimum curative dose).

[1] = test system: Liver stage of P. yoelii yoelii; experiment: In vitro liver-stage antimalarial efficacy evaluation; type: cell-based; conditions: Plasmodium yoelii
Description: In Vitro Liver-Stage Antimalarial Efficacy Evaluation. Any new desirable antimalarial drug should be broad spectrum: it should be active against both the blood stage and the liver stage of the parasite. New compounds were assessed on the Plasmodium yoelii liver stage in vitro. The liver stage of P. yoelii is a parasite of rodent extensively used as an experimental model for studying the initial phase of the malaria infection.

Plasmodium cynomolgi = experiment: Radical curative activity in relapsed Rhesus monkeys; type: in vivo; conditions: CQ alone 10 mg/kg/day for 7 days, no drug 2
Text: Compounds with antihypnozoite activity will delay the relapse or radically cure the infection. […] Relapse was expected in the control group. Relapse in the treated group indicates failure of the test compounds. […] After standard treatment, blood smears were monitored daily for 4 consecutive days of negative results and 2 times weekly for 2 weeks.

P. berghei NK-65 = experiment: In vivo efficacy in Swiss mice infected with P. berghei; conditions: Plasmodium berghei, 96 h; P. berghei NK-65, Swiss mice, oral once daily for 4 days; read-out: ED50
[2] = test system: P. falciparum African NF54 strain; experiment: In vivo efficacy in immunocompromised BXN mice infected with P. falciparum NF54; conditions: Plasmodium falciparum, 96 h, oral once daily for 4 days
Text: (§3) Antimalarial efficacy data was obtained by evaluating new compounds in two rodent models: (I) Swiss mice infected with rodent malaria strain P. berghei; (II) Immunocompromised BXN mice infected with either the sensitive P. falciparum African NF54 strain or the multi-drug resistant P. falciparum Thailand T24 strain.

[3] = test system: multi-drug resistant P. falciparum Thailand T24 strain; experiment: In vivo efficacy in immunocompromised BXN mice infected with P. falciparum T24; conditions: Plasmodium falciparum, 96 h, oral once daily for 4 days
Text: as §3

[4] = Sprague-Dawley, rat, in vivo, po

Structure (SMILES): CCN(CC)Cc1cc(Nc2ccnc3cc(Cl)ccc23)ccc1O [Amodiaquine, reference compound]
- IC50 (P. falciparum PH3; read-out: IC50): 15.9 ± 3.2 nM
- IC50 (P. falciparum 3D7; read-out: IC50): 4.9 ± 1.8 nM
- IC50 (P. falciparum DD2; read-out: IC50): 9.1 ± 1.2 nM
- IC50 (P. falciparum TM6; read-out: IC50): 7.5 ± 2.4 nM
- IC50 (P. falciparum K1; read-out: IC50): 21.2 ± 2.1 nM
- IC50 (P. falciparum TM4; read-out: IC50): 15.2 ± 2.6 nM
- IC50 (P. falciparum V1S): 8.7 ± 2.5 nM

Structure (SMILES): C[C@H]1[C@H](OC(=O)CCC(=O)O)O[C@@H]2O[C@@]3(C)CC[C@H]4[C@H](C)CC[C@@H]1[C@@]24OO3 [Artesunate]
- Primary therapeutic index (rodent P. berghei; MTD divided by MCD, route iv): 37
- Secondary therapeutic index (rodent P. berghei; MTD divided by MCureD, route iv): 10
- MCureD (minimum curative dose) (rodent P. berghei; route iv): 25.4 mg/kg
- MTD (maximum tolerated dose) (rats, route iv): 250 mg/kg

Structure (SMILES): O=C1C(O)=C([C@H]2CC[C@H](c3ccc(Cl)cc3)CC2)C(=O)c2ccccc21 [Atovaquone, reference compound]
- IC50 [1]: 57 nM

Structure (SMILES): CCN(CC)CCCC(C)Nc1ccnc2cc(Cl)ccc12 (stereo not shown) [Chloroquine, reference compound]
- IC50 (P. falciparum PH3): 33.4 ± 9.1 nM
- IC50 (P. falciparum 3D7): 9.7 ± 3.4 nM
- IC50 (P. falciparum DD2): 45.8 ± 10.2 nM
- IC50 (P. falciparum TM6): 96.4 ± 6.9 nM
- IC50 (P. falciparum K1): 166 ± 19.3 nM
- IC50 (P. falciparum TM4): 115 ± 12.7 nM
- IC50 (P. falciparum V1S): 152 ± 14.1 nM
- MCureD (minimum curative dose) (rodent P. berghei; administered orally): None
- Results (radical curative test) (Plasmodium cynomolgi): relapse
- Days post-treatment (relapse) (Plasmodium cynomolgi; one value per monkey): 9 days
- MTD (maximum tolerated dose) (rats, administered orally (intragastric), observed 2 weeks): 240 mg/kg

Structure (SMILES): C[C@H]1[C@@H](O)O[C@@H]2O[C@@]3(C)CC[C@H]4[C@H](C)CC[C@@H]1[C@@]24OO3 [Dihydroartemisinin, reference compound]
- ED50 (P. berghei NK-65): 0.56 mg/kg
- ED50 [2]: 1.1 mg/kg
- ED50 [3]: 1.2 mg/kg

Structure (SMILES): OC(c1cc(C(F)(F)F)nc2c(C(F)(F)F)cccc12)C1CCCCN1 (stereo not shown) [Mefloquine]
- Primary therapeutic index (rodent P. berghei; [4]): 60
- Secondary therapeutic index (rodent P. berghei; [4]): 15
- MCureD (minimum curative dose) (rodent P. berghei; administered orally): 40.5 mg/kg
- MTD (maximum tolerated dose) (Sprague-Dawley, rat, in vivo, po, 2 weeks): 600 mg/kg

Structure (SMILES): COc1cc(NC(C)CCCN)c2ncccc2c1 (stereo not shown) [Primaquine, reference compound]
- IC50 [1]: 76 nM
